Test results published in PubChem BioAssay (NCI).
Values joined by “and” are separate entries in the source; they are usually repeats but may differ in a detail not shown here. Identical values can stand only once.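 Grown in 96-well plates, cells were treated for 48 hours with each compound at five concentrations. Insufficient inhibition: endpoint recorded as highest concentration tested. Here, GI50 denotes the concentration required for 50% inhibition of growth. Definition used: TGI = concentration required for complete inhibition of growth.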

Assays:
Assay in all cases: NCI anticancer screen, dose series, 48 h
[1] = system: HT29 colon
[2] = system: CCRF-CEM leukemia
[3] = system: OVCAR-4 ovarian
[4] = system: PC-3 prostate
[5] = system: HCC-2998 colon
[6] = system: CAKI-1 renal
[7] = system: 786-0 renal
[8] = system: SK-OV-3 ovarian
[9] = system: LOX IMVI melanoma
[10] = system: SF-539 CNS

## Fc1ccc(-c2c(-c3ccncc3)[nH]c3nccnc23)cc1
[1]
  GI50: 6.41 µM
  TGI: > 25 µM
[2]
  GI50: 24.6 µM
  TGI: > 25 µM
[3]
  GI50: > 16.7 µM
  TGI: > 25 µM
[4]
  GI50: > 25 µM
  TGI: > 25 µM
[5]
  GI50: 12 µM
  TGI: > 25 µM
[6]
  GI50: 4.52 µM
  TGI: > 19.9 µM
[7]
  GI50: 11.3 µM
  TGI: > 25 µM
[8]
  GI50: 8.25 µM
  TGI: > 25 µM
[9]
  GI50: 11.1 µM
  TGI: > 25 µM
[10]
  GI50: 9.94 µM
  TGI: > 25 µM

## Oc1cccc(-c2nc(-c3ccccc3)[nH]c2-c2ccncc2)c1
[1]
  GI50: 7.46 µM
  TGI: > 25 µM
[2]
  GI50: 17.1 µM
  TGI: > 25 µM
[3]
  GI50: 10.5 µM
  TGI: > 25 µM
[4]
  GI50: > 20.8 µM
  TGI: > 25 µM
[5]
  GI50: 11.7 µM
  TGI: > 25 µM
[6]
  GI50: 18.7 µM
  TGI: > 25 µM
[7]
  GI50: 9.11 µM
  TGI: > 25 µM
[8]
  GI50: 9.29 µM
  TGI: > 25 µM
[9]
  GI50: 8.82 µM
  TGI: > 25 µM
[10]
  GI50: 17.6 µM
  TGI: > 25 µM

## CCN1C(=O)N(CC)C2C1NN=c1s/c(=C\c3ccc(OC)cc3)c(=O)n12 (stereo not given)
[1]
  GI50: 0.238 µM
  TGI: > 82.4 µM
[2]
  GI50: 0.304 µM
  TGI: > 100 µM
[3]
  GI50: 0.614 µM
  TGI: > 100 µM
[4]
  GI50: 0.14 µM
  TGI: > 100 µM
[5]
  GI50: 0.357 µM
  TGI: > 100 µM
[6]
  GI50: 0.0577 µM
  TGI: > 80.2 µM
[7]
  GI50: 0.647 µM
  TGI: > 100 µM
[8]
  GI50: 0.267 µM
  TGI: 17.1 µM
[9]
  GI50: 0.233 µM
  TGI: > 100 µM
[10]
  GI50: 0.103 µM
  TGI: 0.545 µM

## COc1cc(/C=C/c2ccccn2)cc(OC)c1OC
[1]
  TGI: > 10 µM
[2]
  TGI: > 10 µM
[3]
  TGI: > 10 µM
[4]
  TGI: > 10 µM
[5]
  TGI: > 10 µM
[6]
  TGI: > 10 µM
[7]
  TGI: > 10 µM
[8]
  TGI: > 10 µM
[9]
  TGI: > 10 µM
[10]
  TGI: > 10 µM

## O=C1NC(=O)C(c2c[nH]c3ccccc23)=C1c1ccccc1
[1]
  GI50: > 25 µM
  TGI: > 25 µM
[2]
  GI50: > 25 µM
  TGI: > 25 µM
[3]
  GI50: > 25 µM
  TGI: > 25 µM
[4]
  GI50: > 25 µM
  TGI: > 25 µM
[5]
  GI50: > 25 µM
  TGI: > 25 µM
[6]
  GI50: > 25 µM
  TGI: > 25 µM
[7]
  GI50: > 25 µM
  TGI: > 25 µM
[8]
  GI50: > 25 µM
  TGI: > 25 µM
[9]
  GI50: 23.3 µM
  TGI: > 25 µM
[10]
  GI50: > 25 µM
  TGI: > 25 µM

## COc1cc(NC(=O)c2ccccc2Nc2ccnc(C(F)(F)F)c2)cc(OC)c1OC
[1]
  GI50: 65 µM
  TGI: > 100 µM
[2]
  GI50: 50.7 µM
  TGI: > 100 µM
[3]
  GI50: 30.6 µM
  TGI: > 100 µM
[4]
  GI50: 35.3 µM
  TGI: > 100 µM
[5]
  GI50: 88.3 µM
  TGI: > 100 µM
[6]
  GI50: 50.4 µM
  TGI: > 100 µM
[7]
  GI50: > 100 µM
  TGI: > 100 µM
[8]
  GI50: > 100 µM
  TGI: > 100 µM
[9]
  GI50: 75.6 µM
  TGI: > 100 µM
[10]
  GI50: > 100 µM
  TGI: > 100 µM

## COC(=O)c1ccc2c(C(=Nc3ccc(N(C)C(=O)CN4CCN(C)CC4)cc3)c3ccccc3)c(O)[nH]c2c1
[1]
  GI50: 1.22 µM
  TGI: 3.9 µM
[2]
  GI50: 2.56 µM and 2.81 µM
  TGI: 16.7 µM and > 100 µM
[3]
  GI50: 5.17 µM and 13.1 µM
  TGI: 59.6 µM and > 70.8 µM
[4]
  GI50: 5.2 µM and 25.6 µM
  TGI: 53.2 µM and > 100 µM
[5]
  GI50: 11.2 µM and 7.26 µM
  TGI: 30.7 µM and 73.8 µM
[6]
  GI50: 4.28 µM and 11.9 µM
  TGI: 25.3 µM and > 100 µM
[7]
  GI50: 1.93 µM and 1.47 µM
  TGI: 6.6 µM and 4.64 µM
[8]
  GI50: 12.3 µM and > 57.6 µM
  TGI: 44.1 µM and > 100 µM
[9]
  GI50: 1.24 µM and 1.28 µM
  TGI: 3.09 µM and 2.75 µM
[10]
  GI50: 0.597 µM and 1.4 µM
  TGI: 2.26 µM and 5.9 µM
